Results as given in ChEMBL document CHEMBL1145509, “Defining the molecular forces that determine the impact of neomycin on bacterial protein synthesis: importance of the 2'-amino functionality” (Antimicrob Agents Chemother, 2007).
Values after ≈ are worked out from the molar mass of the structure shown.

Legend:
[1] = test system: Escherichia coli; assay: Binding affinity to Escherichia coli 16S rRNA A-site model at Ec2AP1493 position assessed as two rotational correlation time by time resolved fluorescence anisotropy
[2] = test system: Escherichia coli; assay: Binding affinity to Escherichia coli 16S rRNA A-site model at Ec2AP1492 position assessed as two rotational correlation time by time resolved fluorescence anisotropy
[3] = test system: Escherichia coli; assay: Binding affinity to Escherichia coli 16S rRNA A-site model at Ec2AP1492 position assessed as shorter rotational correlation time by time resolved fluorescence anisotropy
[4] = test system: Escherichia coli; assay: Antibacterial activity against Escherichia coli DH5-alpha after 24 hrs by broth dilution assay; format: functional; settings: DH5alpha
[5] = test system: Escherichia coli; assay: Antitranslation activity in Escherichia coli extract rRNA S30 assessed as inhibition of luciferase expression by transcription-translation assay; format: functional
[6] = test system: Escherichia coli; assay: Binding affinity to Escherichia coli 16S rRNA A-site model at Ec2AP1493 position assessed as shorter rotational correlation time by time resolved fluorescence anisotropy

| Compound | Activity [1] | Activity [2] | Activity [3] | MIC [4] | IC50 [5] | Activity [6] |
| --- | --- | --- | --- | --- | --- | --- |
| NC[C@@H]1O[C@H](O[C@@H]2[C@@H](O)[C@@H]3OC4[C@@H](O)[C@H](N)C[C@H](N)[C@H]4O[C@H]4O[C@H](CN)[C@@H](O)[C@H](O)[C@H]4NC[C@H]2O3)[C@H](N)[C@@H](O)[C@@H]1O (some centres not stated) | 3.95 nanoseconds | 4.38 nanoseconds | 0.76 nanoseconds | 119 µg/mL (≈ 199 µM) | 1100 nM | 0.65 nanoseconds |
| NC[C@@H]1O[C@H](O[C@@H]2[C@@H](O)[C@H](O[C@@H]3[C@@H](O)[C@H](N)C[C@H](N)[C@@H]3O[C@H]3O[C@H](CN)[C@@H](O)[C@H](O)[C@H]3N)O[C@@H]2CO)[C@H](N)[C@@H](O)[C@@H]1O | 5.32 nanoseconds | 7.32 nanoseconds | 2.35 nanoseconds | 1.9 µg/mL (≈ 3.09 µM) | 50 nM | 1.96 nanoseconds |
